For test [1], the target named is T1, 1-phosphatidylinositol 4,5-bisphosphate phosphodiesterase gamma-1 (Bos taurus, UniProt P08487).
T1 sequence (P08487 whole entry): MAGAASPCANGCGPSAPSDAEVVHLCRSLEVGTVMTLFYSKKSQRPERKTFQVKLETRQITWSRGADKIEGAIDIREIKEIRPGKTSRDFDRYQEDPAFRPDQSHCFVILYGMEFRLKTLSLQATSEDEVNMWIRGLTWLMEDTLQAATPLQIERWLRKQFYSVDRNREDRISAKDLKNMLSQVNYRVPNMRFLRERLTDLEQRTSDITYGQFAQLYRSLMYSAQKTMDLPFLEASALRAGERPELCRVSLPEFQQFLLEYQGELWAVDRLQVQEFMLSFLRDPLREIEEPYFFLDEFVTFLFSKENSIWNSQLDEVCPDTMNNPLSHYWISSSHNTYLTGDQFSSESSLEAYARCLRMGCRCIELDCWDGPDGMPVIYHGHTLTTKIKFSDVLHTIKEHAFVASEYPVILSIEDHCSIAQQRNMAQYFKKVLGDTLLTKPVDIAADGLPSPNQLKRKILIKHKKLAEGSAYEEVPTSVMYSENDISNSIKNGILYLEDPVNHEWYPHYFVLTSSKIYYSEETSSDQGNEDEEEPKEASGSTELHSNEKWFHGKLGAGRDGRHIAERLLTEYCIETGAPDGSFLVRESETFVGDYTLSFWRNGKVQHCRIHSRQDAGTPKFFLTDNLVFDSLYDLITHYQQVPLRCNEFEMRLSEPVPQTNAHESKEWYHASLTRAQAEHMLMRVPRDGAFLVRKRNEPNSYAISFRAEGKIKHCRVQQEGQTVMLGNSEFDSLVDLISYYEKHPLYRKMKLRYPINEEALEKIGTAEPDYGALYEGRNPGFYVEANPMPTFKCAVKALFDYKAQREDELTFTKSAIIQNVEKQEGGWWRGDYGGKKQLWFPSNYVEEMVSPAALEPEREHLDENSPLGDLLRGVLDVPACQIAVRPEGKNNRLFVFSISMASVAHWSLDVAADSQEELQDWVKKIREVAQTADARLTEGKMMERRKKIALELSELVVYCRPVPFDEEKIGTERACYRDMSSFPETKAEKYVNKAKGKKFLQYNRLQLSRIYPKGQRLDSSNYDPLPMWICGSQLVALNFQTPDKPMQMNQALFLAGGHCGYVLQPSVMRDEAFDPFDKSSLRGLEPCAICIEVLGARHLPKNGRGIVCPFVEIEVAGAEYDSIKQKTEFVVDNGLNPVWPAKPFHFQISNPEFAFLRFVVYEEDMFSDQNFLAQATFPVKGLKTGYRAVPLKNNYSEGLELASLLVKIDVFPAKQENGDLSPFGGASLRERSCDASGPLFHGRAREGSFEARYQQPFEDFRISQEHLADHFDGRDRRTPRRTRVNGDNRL
Kind of test: Inhibition of bovine brain PI-PLCgamma1.

The next test deals with HT1197. Kind of test: Growth inhibition of human HT1197 cells after 2 days by SRB assay. The format is functional, cell-based. The settings on record: HT1197, 48 h. (In general: Sulforhodamine B stains cellular protein and so reports cell mass.)
The subject of another test is A549. Kind of test: Growth inhibition of human A549 cells after 2 days by SRB assay. It counts as functional, cell-based. The settings on record: A549, 48 h.
The next test deals with MCF7. Kind of test: Growth inhibition of human MCF7 cells after 2 days by SRB assay. It counts as functional, cell-based. To be noted: MCF7, 48 h.
The next test relates to HCT-15. Kind of test: Growth inhibition of human HCT15 cells after 2 days by SRB assay. The settings on record: HCT-15, 48 h. It counts as functional, cell-based.
Test [2] in a line: Growth inhibition of human CCD-18Co cells after 2 days by SRB assay. It counts as cell-based. The settings on record: 48 h.
The subject of a further test is SK-OV-3. Kind of test: Growth inhibition of human SKOV3 cells after 2 days by SRB assay. The format is functional, cell-based. The settings on record: SK-OV-3, 48 h.
Test [3] is described as follows: Inhibition of pig brain PI-PLCgamma1. Also on record: species or system Sus scrofa.
Test [4] concerns the target T2, 1-phosphatidylinositol 4,5-bisphosphate phosphodiesterase gamma-1 (Rattus norvegicus, UniProt P10686).
T2 sequence (P10686 whole entry): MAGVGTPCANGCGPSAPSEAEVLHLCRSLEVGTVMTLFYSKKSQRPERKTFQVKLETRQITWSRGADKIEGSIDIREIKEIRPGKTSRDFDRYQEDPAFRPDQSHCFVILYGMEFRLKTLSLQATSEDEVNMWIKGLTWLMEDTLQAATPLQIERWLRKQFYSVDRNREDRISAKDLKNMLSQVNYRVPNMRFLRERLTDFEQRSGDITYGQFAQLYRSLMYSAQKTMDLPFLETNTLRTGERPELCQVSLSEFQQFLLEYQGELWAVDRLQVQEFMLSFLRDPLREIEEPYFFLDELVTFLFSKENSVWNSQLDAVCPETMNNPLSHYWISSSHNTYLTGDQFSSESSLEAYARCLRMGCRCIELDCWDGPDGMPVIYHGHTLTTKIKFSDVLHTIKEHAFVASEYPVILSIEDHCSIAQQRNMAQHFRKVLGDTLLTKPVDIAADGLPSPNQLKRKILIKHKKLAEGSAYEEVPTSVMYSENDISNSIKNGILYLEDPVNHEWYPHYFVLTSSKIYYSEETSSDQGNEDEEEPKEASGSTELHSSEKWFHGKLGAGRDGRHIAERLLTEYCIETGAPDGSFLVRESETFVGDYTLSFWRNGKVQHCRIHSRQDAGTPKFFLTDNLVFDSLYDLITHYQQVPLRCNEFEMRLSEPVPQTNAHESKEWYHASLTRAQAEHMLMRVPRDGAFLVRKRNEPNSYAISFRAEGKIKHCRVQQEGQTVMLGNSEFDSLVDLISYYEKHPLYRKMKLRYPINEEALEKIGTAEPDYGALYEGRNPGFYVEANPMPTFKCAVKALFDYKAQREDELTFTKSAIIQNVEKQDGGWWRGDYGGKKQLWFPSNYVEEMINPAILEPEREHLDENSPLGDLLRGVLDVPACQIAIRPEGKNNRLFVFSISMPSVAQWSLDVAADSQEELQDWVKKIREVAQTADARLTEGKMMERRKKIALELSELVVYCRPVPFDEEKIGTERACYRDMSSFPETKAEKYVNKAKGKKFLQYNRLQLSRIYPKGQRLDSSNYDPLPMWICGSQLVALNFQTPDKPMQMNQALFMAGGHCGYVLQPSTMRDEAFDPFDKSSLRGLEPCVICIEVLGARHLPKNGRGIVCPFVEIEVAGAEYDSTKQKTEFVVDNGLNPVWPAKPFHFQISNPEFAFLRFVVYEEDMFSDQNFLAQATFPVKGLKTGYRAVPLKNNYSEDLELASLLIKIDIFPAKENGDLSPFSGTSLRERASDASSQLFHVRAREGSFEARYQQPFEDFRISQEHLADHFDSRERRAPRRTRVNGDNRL
Kind of test: Inhibition of rat brain PI-PLCgamma1.

Molecules are shown by their SMILES. In brackets after ≈: the same amount, converted by molar mass. A value given as a limit tells only on which side of the number the result lay.

What is called IC50 is the concentration at which inhibition is half-maximal.

For `O=C(O)c1ccccc1O` [SALICYLIC ACID], half-maximal inhibition in [1] (IC50) required 873 µM.
For the compound `CCCCCC/C=C\CCCCCCCc1cccc(O)c1C(=O)OC`, in test [1], the IC50 is > 693 µM.
Turning to `CCCCCCCCCCCCCCCc1cccc(O)c1`, the concentration for half-maximal inhibition (IC50) in the test on HT1197 came to 41.8 µg/mL (≈ 137 µM); in test [1], 58 µM; in the test on A549, 11.9 µg/mL (≈ 39.1 µM); with MCF7, 8.71 µg/mL (≈ 28.6 µM); in the test on HCT-15 it was 31.9 µg/mL (≈ 105 µM).
Take `CCCCCC/C=C\CCCCCCCCCc1cccc(O)c1`: the IC50 with HT1197 was determined as 20.8 µg/mL (≈ 63 µM); in [2], 66.4 µg/mL (≈ 201 µM); in test [1], 9.73 µM; in the test on A549 it was 11.8 µg/mL (≈ 35.7 µM); with MCF7, 7.19 µg/mL (≈ 21.8 µM); with HCT-15, 32.9 µg/mL (≈ 99.5 µM).
As for `CCCCCC/C=C\CCCCCCCCCc1cccc(O)c1C(=O)O` [GINKGOLIC ACID 17:1], the IC50 with HT1197 is 28.1 µg/mL (≈ 75.1 µM); in test [1], 2.22 µM; in the test with A549 it was 29.2 µg/mL (≈ 78 µM); in the test with MCF7, 5.06 µg/mL (≈ 13.5 µM); in the test on HCT-15 it was 8.39 µg/mL (≈ 22.4 µM); in the test on SK-OV-3 it was > 50 µg/mL.
The compound `O=c1cc(-c2ccc(O)c(-c3c(O)cc(O)c4c(=O)cc(-c5ccc(O)cc5)oc34)c2)oc2cc(O)cc(O)c12` [AMENTOFLAVONE] displayed a half-inhibitory concentration (IC50) in [1] of 29 µM.
Take `CCCCCC/C=C\CCCCCCCc1cccc(OC(C)=O)c1C(=O)OC`: in [1], the IC50 is > 621 µM.
On the same count and under the same terms, next, `CCCCCC/C=C\CCCCCCCCCc1cc(O)cc(O)c1`: 30.6 µM.
Consider `CCCCCCCCCCCCCc1cccc(O)c1C(=O)O` [GINKGOLIC ACID 13:0], for which the concentration for half-maximal inhibition (IC50) in the test on HT1197 was 44.6 µg/mL (≈ 139 µM); in test [2], 59.1 µg/mL (≈ 184 µM); in test [1] it was 16.3 µM; with A549, > 50 µg/mL; in the test on MCF7 it was 22.7 µg/mL (≈ 70.7 µM); in the test with HCT-15, > 50 µg/mL. Also, in the test on SK-OV-3, the IC50 is 20.4 µg/mL (≈ 63.7 µM).
In the case of `CCCCCC/C=C\CCCCCCCc1cccc(O)c1C(=O)O` [GINGKOLIC ACID], the 50% inhibitory concentration (IC50) came out at 46.3 µg/mL (≈ 134 µM) with HT1197; 97.1 µg/mL (≈ 280 µM) in [2]; 5.66 µM in test [1]; 31.3 µg/mL (≈ 90.3 µM) in the test with A549; 6.44 µg/mL (≈ 18.6 µM) in the test on MCF7; 12.7 µg/mL (≈ 36.7 µM) in the test with HCT-15. In addition, in the test on SK-OV-3, the IC50 is > 50 µg/mL.
With `Cc1cccc(O)c1` [METACRESOL], the half-maximal inhibitory concentration (IC50) in test [1] was > 2310 µM.
Take `CCCCCCCCCCCCCc1cc(O)cc(O)c1`: the IC50 is 2.2 µg/mL (≈ 7.52 µM) in the test with HT1197; > 100 µg/mL in test [2]; 72.3 µM in [1]; > 50 µg/mL with A549; 1.91 µg/mL (≈ 6.53 µM) in the test with MCF7; 15.3 µg/mL (≈ 52.4 µM) in the test with HCT-15. Also, in the test with SK-OV-3, the IC50 is > 50 µg/mL.
As to `Cc1cc(O)cc(O)c1` [ORCINOL], the IC50 in test [1] was > 2010 µM.
`CCCCCC/C=C\CCCCCCCc1cccc(OC(C)=O)c1`: in test [1], the IC50 was > 726 µM.
In the case of `CCCCCCCCCCCCCc1cccc(O)c1`, the IC50 was 14.6 µg/mL (≈ 52.7 µM) with HT1197; 73.2 µg/mL (≈ 265 µM) in test [2]; 57.8 µM in [1]; 25.9 µg/mL (≈ 93.7 µM) in the test with A549; 7.04 µg/mL (≈ 25.5 µM) in the test with MCF7; 29.7 µg/mL (≈ 107 µM) in the test on HCT-15. The half-inhibitory concentration (IC50) in the test on SK-OV-3 was > 50 µg/mL.
In the case of `CCCCCC/C=C\CCCCCCCc1cc(OC(C)=O)cc(OC(C)=O)c1`, in test [1], the IC50 was > 621 µM.
`CC(=O)O[C@@H]1[C@H](O[C@H](CO)[C@H](O)[C@@H](O)[C@@H](OC(C)=O)C(=O)O[C@H](C)CCCCCCCCCCCCCCCc2cccc(O)c2C(=O)O)O[C@H](CO)[C@@H](O)[C@@H]1O` [CALOPOROSIDE]: the IC50 in test [3] was determined as 18 µM.
Compound `CC(=O)c1cc2c(=O)c3c(C(=O)O)c(O)c(O)cc3oc2c(C(C)=O)c1-c1coc2cc(O)c(O)c(C(=O)O)c2c1=O` [VINAXANTHONE] showed a half-maximal inhibitory concentration (IC50) in test [4] of 5.4 µM.
Compound `C[C@@H]1CC[C@H]2[C@]13CC[C@@]1(C)O[C@]2(C)[C@@H](NCCCCN(C)CCCN(C)C)[C@H]1C3` [HISPIDOSPERMIDIN] had a concentration for half-maximal inhibition (IC50) in test [4] of 16 µM.
